The results in this text go back to patent publication US4438036A, “β-Lactam antibiotics their preparation and their use” (priority 1980, dated 1984).

What all share (assay): Antibacterial effectiveness in a standard microtitre test (MIC)
Format in all cases: cell-based

Test [1] concerns Klebsiella aerogenes A. The text has this:
(§1) Antibacterial effectiveness of the compounds of the Examples in a standard microtitre test.

The subject of test [2] is Escherichia coli JT 39. Particulars: JT39.
Description: as §1

Test [3] has as its system Escherichia coli JT 4 R+.
Description: as §1

Test [4] concerns Shigella sonnei MB 11967. Particulars: MB11967.
Description: as §1

For test [5], the system named is Staphylococcus aureus Oxford.
Description: as §1

The test system of test [6] is Proteus rettgeri WM16. The following applies: Providencia rettgeri.
Description: as §1

The test system of test [7] is Pseudomonas aeruginosa A.
Description: as §1

In test [8] the test system is Salmonella typhimurium CR10. Particulars: Salmonella enterica.
Description: as §1

The subject of test [9] is Staphylococcus aureus 1517.
Description: as §1

The subject of test [10] is Proteus mirabilis C977.
Description: as §1

Test [11] relates to Citrobacter freundii E8.
Description: as §1

The test system of test [12] is Serratia marcescens US20.
Description: as §1

For test [13], the system named is Proteus vulgaris W091.
Description: as §1

The subject of test [14] is Enterobacter cloacae N1.
Description: as §1

The subject of test [15] is Proteus morganii I580. Particulars: Morganella morganii.
Description: as §1

In test [16] the test system is Klebsiella aerogenes Ba 95 R+.
Description: as §1

For test [17], the system named is Escherichia coli ESS.
Description: as §1

In test [18] the test system is Escherichia coli 0111.
Description: as §1

For test [19], the system named is Bacillus subtilis A.
Description: as §1

Test [20] has as its system Streptococcus faecalis I. Particulars: Enterococcus faecalis.
Description: as §1

The subject of test [21] is Staphylococcus aureus Russell.
Description: as §1

Test [22] relates to Streptococcus pneumoniae CN33.
Description: as §1

Test [23] deals with Streptococcus pyogenes CN10.
Description: as §1

Where [24] appears, read: Staphylococcus aureus Oxford, read-out: MIC.
[25] abbreviates: Proteus rettgeri WM16, read-out: MIC.
The mark [26] stands for this setting: Pseudomonas aeruginosa A, read-out: MIC.
Setting [27] is: Salmonella typhimurium CR10, read-out: MIC.
Setting [28] is: Proteus morganii I580, read-out: MIC.
[29] abbreviates: Bacillus subtilis A, read-out: MIC.
Where [30] appears, read: Streptococcus faecalis I, read-out: MIC.

≈ marks a conversion by molar mass, not a printed value. Where two headings read alike, the source gives them in different places. Where only a bound is given, the exact number is not on record here.

The term MIC denotes the least concentration at which growth counts as inhibited. On to `CC(=O)N/C=C/SC1=C(C(=O)O)N2C(=O)[C@H]([C@@H](C)N)[C@H]2C1` [Example 2, (5R,6R)-3-[E-2-acetamidoethenylthio]-6-[(R)-1-aminoethyl]-7-oxo-1-azabicyclo[3.2.0]hept-2-ene-2-carboxylic acid], for which the MIC is 0.5 µg/mL (≈ 1.61 µM) in [1] (Klebsiella aerogenes); 0.5 µg/mL (≈ 1.61 µM) in test [2] (Escherichia coli); 2 µg/mL (≈ 6.42 µM) in test [3]; 1 µg/mL (≈ 3.21 µM) in test [4]; 0.5 µg/mL (≈ 1.61 µM) in [5] (setting [24]); 4 µg/mL (≈ 12.8 µM) in test [6] (setting [25]). The MIC came out at 62 µg/mL (≈ 199 µM) in test [7] (setting [26]); 1 µg/mL (≈ 3.21 µM) in [8] (setting [27]); 8 µg/mL (≈ 25.7 µM) in test [9] (read-out: MIC); 4 µg/mL (≈ 12.8 µM) in test [10] (read-out: MIC); 2 µg/mL (≈ 6.42 µM) in test [11] (read-out: MIC); 2 µg/mL (≈ 6.42 µM) in test [12] (read-out: MIC). Also, the MIC is 4 µg/mL (≈ 12.8 µM) in test [13] (read-out: MIC); 2 µg/mL (≈ 6.42 µM) in test [14] (read-out: MIC); 8 µg/mL (≈ 25.7 µM) in test [15] (setting [28]); 2 µg/mL (≈ 6.42 µM) in test [16]; 0.2 µg/mL (≈ 0.642 µM) in test [17] (Escherichia coli); 0.5 µg/mL (≈ 1.61 µM) in test [18]. Further, the MIC turned out to be 0.2 µg/mL (≈ 0.642 µM) in [19] (setting [29]) and 4 µg/mL (≈ 12.8 µM) in test [20] (setting [30]).
On to `CC(=O)N/C=C/SC1=C(C(=O)[O-])N2C(=O)[C@H]([C@@H](C)O)[C@H]2C1.[Na+]` [Example 5, Sodium (5R,6S)-3-(E-2-acetamidoethenylthio)-6-[(R)-1-hydroxyethyl]-7-oxo-1-azabicyclo[3.2.0]hept-2-ene-2-carboxylate], for which the minimum inhibitory concentration (MIC) in test [1] (Klebsiella aerogenes) is 0.5 µg/mL; in test [2] (Escherichia coli), 0.2 µg/mL; in [4], not above 1 µg/mL; in test [5] (Staphylococcus aureus), 0.2 µg/mL; in [6] (WM16), 2 µg/mL; in [21] (Staphylococcus aureus), not above 0.5 µg/mL. Moreover, the MIC amounted to 125 µg/mL in [7] (Pseudomonas aeruginosa); 0.5 µg/mL in test [8] (TYPHIMURIUM); 2 µg/mL in test [10]; 0.5 µg/mL in test [11]; 2 µg/mL in test [12]; 2 µg/mL in test [13]. Further, the MIC is 1 µg/mL in test [14]; 0.2 µg/mL in test [22]; 2 µg/mL in [15] (I580); 0.5 µg/mL in test [23]; more than 0.2 µg/mL in [17] (Escherichia coli); not above 0.5 µg/mL in test [18]. Besides, the MIC in test [19] (Bacillus subtilis) amounted to 0.2 µg/mL; in [20], 8 µg/mL.
Turning to `CC(=O)N/C=C/SC1=C(C(=O)[O-])N2C(=O)[C@H]([C@@H](C)OC=O)[C@H]2C1.[Na+]` [Example 6, Sodium (5R,6S)-3-(E-2-acetamidoethenylthio)-6-[(R)-1-formyloxyethyl]-7-oxo-1-azabicyclo[3.2.0]hept-2-ene-2-carboxylate], the MIC came out at 1.6 µg/mL in [1] (Klebsiella aerogenes); 0.8 µg/mL in [2] (Escherichia coli); 1.6 µg/mL in [4]; 0.8 µg/mL in [5] (Staphylococcus aureus); 3.1 µg/mL in test [6] (WM16); 0.4 µg/mL in test [21] (Staphylococcus aureus). Further, the MIC in test [7] (Pseudomonas aeruginosa) was 100 µg/mL; in [8] (TYPHIMURIUM), 3.1 µg/mL; in test [9], 12.5 µg/mL; in test [10], 6.2 µg/mL; in test [11], 1.6 µg/mL; in [12] it was 3.1 µg/mL. In addition, the MIC in test [13] came out at 3.1 µg/mL; in [14], 6.2 µg/mL; in test [22], 0.1 µg/mL; in [15] (I580), 6.2 µg/mL; in test [23] it was 0.2 µg/mL; in [17] (Escherichia coli) it was 0.4 µg/mL. Moreover, the results for the minimum inhibitory concentration (MIC) in test [18], in test [19] (Bacillus subtilis) and in [20] were 1.6 µg/mL, 0.8 µg/mL and 12.5 µg/mL, respectively.
For `CC(=O)NCCSC1=C(C(=O)O)N2C(=O)[C@H]([C@@H](C)N)[C@H]2C1` [Example 8, (5R,6R)-3-(2-Acetamidoethylthio)-6-[(R)-1-aminoethyl]-7-oxo-1-azabicyclo[3.2.0]hept-2-ene-2-carboxylic acid], the minimum inhibitory concentration (MIC) in [1] (Klebsiella aerogenes A, read-out: MIC) came to 8 µg/mL (≈ 25.5 µM); in test [2] (Escherichia coli JT 39, read-out: MIC), 8 µg/mL (≈ 25.5 µM); in test [4], 8 µg/mL (≈ 25.5 µM); in test [5] (setting [24]), 4 µg/mL (≈ 12.8 µM); in test [6] (setting [25]), 16 µg/mL (≈ 51.1 µM); in test [21] (Staphylococcus aureus Russell, read-out: MIC), 2 µg/mL (≈ 6.38 µM). For the same compound, the MIC in test [7] (setting [26]) is 62 µg/mL (≈ 198 µM); in test [8] (setting [27]), 8 µg/mL (≈ 25.5 µM); in test [9] (read-out: MIC) it was 31 µg/mL (≈ 98.9 µM); in test [10] (read-out: MIC) it was 31 µg/mL (≈ 98.9 µM); in test [11] (read-out: MIC) it was 16 µg/mL (≈ 51.1 µM); in test [12] (read-out: MIC), 16 µg/mL (≈ 51.1 µM). Further, the MIC in [13] (read-out: MIC) worked out at 16 µg/mL (≈ 51.1 µM); in [14] (read-out: MIC), 16 µg/mL (≈ 51.1 µM); in [22] (read-out: MIC), 2 µg/mL (≈ 6.38 µM); in test [15] (setting [28]), 16 µg/mL (≈ 51.1 µM); in [23] (read-out: MIC), 2 µg/mL (≈ 6.38 µM); in test [17] (Escherichia coli ESS, read-out: MIC) it was 4 µg/mL (≈ 12.8 µM). Further, the results for the MIC in test [18], in [19] (setting [29]) and in [20] (setting [30]) were 16 µg/mL (≈ 51.1 µM), 4 µg/mL (≈ 12.8 µM) and 16 µg/mL (≈ 51.1 µM), respectively.
